According to BindingDB's records for patent US12378224 (Dong-A Socio Holdings Co., 2025):
pIC50: −log10 of the molar value.

Biological target: T1, Tyrosine-protein kinase Mer/Tyrosine-protein kinase UFO (Human, UniProt P30530+Q12866)
T1 sequence (P30530 whole entry): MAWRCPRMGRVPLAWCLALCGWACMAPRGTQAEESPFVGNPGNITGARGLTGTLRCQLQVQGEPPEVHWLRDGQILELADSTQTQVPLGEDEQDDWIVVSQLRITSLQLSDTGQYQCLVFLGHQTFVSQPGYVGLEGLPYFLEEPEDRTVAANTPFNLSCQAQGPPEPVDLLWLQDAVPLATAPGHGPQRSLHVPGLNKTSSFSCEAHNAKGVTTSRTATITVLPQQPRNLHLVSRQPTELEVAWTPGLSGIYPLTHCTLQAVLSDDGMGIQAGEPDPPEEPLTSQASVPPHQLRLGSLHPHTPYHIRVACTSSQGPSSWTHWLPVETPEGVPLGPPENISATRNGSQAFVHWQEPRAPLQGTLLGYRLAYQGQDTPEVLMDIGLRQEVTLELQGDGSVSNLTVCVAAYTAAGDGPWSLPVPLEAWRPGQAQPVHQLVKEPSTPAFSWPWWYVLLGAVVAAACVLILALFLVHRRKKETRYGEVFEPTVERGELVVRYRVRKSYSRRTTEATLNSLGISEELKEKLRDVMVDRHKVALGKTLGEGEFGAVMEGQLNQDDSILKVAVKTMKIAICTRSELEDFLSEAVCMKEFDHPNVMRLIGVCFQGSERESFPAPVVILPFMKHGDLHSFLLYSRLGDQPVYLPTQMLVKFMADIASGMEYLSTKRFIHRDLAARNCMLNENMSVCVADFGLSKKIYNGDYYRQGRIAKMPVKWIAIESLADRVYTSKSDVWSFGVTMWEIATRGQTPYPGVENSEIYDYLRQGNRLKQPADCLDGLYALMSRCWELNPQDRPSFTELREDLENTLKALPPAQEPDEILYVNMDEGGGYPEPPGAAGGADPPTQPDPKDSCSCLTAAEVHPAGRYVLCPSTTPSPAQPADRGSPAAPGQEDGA
T1 sequence (Q12866 whole entry): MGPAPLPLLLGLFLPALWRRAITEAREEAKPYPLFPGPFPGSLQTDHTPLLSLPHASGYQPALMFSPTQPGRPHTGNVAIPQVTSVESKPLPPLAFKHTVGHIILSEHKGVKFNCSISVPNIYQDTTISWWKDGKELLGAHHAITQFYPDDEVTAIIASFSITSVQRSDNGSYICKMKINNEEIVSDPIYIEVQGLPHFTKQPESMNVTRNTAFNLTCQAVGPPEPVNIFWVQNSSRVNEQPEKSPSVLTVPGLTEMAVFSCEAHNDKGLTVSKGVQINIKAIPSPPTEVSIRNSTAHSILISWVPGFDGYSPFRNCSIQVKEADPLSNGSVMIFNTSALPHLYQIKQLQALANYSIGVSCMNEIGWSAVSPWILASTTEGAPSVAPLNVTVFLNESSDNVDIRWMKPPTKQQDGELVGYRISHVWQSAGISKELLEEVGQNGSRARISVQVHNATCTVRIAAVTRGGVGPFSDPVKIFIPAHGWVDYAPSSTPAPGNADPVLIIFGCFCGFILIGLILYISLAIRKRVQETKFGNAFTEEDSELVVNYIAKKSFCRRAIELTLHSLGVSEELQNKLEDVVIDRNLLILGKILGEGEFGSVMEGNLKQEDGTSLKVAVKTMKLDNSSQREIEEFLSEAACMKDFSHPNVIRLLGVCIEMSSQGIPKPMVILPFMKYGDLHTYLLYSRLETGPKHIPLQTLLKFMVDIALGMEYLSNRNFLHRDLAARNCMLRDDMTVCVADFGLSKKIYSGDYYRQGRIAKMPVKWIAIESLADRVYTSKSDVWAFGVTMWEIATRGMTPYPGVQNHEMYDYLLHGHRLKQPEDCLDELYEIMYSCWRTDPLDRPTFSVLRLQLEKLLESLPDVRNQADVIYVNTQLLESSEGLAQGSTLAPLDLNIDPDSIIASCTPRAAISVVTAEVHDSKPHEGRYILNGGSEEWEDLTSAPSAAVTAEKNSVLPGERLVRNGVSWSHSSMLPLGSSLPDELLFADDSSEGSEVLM
Assay: TR-FRET Kinase Activity Biochemical Assay
From the text: Table 2: For the SAR (structure-activity relationship) and compound screening, LanthaScreen™ TR-FRET (Time-Resolved fluorescence energy transfer) assay was employed using the phospho-tyrosine specific Terbium (Tb)-labelded antibody with a fluorescein labeled poly-GT (glutamate-tyrosine) as a substrate. Upon excitation at 340 nm by UV, the energy from Tb donor of the antibody is transferred to the fluorescein of the phosphorylated poly GT substrate, and fluorescein emits light at 520 nm. The ratio between the intensity of primary emission at 495 nm and that of secondary emission at 520 nm was used to quantify the level of kinase activity. The recombinant proteins of human c-MER and AXL catalytic domains, Fluorescein-labeled poly-GT substrate, Tb-labeled anti-phosphorylated tyrosine antibodies, the kinase assay buffer, and 0.5M EDTA solution were purchased (Life technologies, USA). The TR-FRET assays were carried out in the white low volume 384-well plate (Corning, USA). […] 10 mM EDTA was added to terminate the enzyme reaction, and the level of phosphorylation of poly-GT substrate was determined following 30 min incubation with 2 nM Tb-labeled antibody. The fluorescence intensity was measured with Envision™ plate reader (PerkinElmer, USA).

SMILES	pIC50
Cn1cc(-c2cnc(N)c(C(=O)N[C@@H]3CCN(C(=O)c4ccc(-c5cccc(Cl)c5Cl)cc4)C3)c2)cn1 [US12378224, Example 369]	> 8.00
CN1CCN(Cc2ccc(-c3cnc(N)c(C(=O)N[C@@H]4CCN(C(=O)c5ccc(-c6ccccc6Cl)cc5)C4)c3)cc2)CC1 [US12378224, Example 572]	> 8.00
CN1CCC(CNC(=O)c2ccc(-c3cnc(N)c(C(=O)N[C@@H]4CCN(C(=O)c5ccc(-c6ccccc6Cl)cc5)C4)c3)cc2)C1 (some centres undefined) [US12378224, Example 594]	> 8.00

Biological target: T2, Tyrosine-protein kinase Mer/Tyrosine-protein kinase receptor UFO/Tyrosine-protein kinase receptor TYRO3 (Human, UniProt P30530+Q06418+Q12866)
T2 sequence (Q06418 whole entry): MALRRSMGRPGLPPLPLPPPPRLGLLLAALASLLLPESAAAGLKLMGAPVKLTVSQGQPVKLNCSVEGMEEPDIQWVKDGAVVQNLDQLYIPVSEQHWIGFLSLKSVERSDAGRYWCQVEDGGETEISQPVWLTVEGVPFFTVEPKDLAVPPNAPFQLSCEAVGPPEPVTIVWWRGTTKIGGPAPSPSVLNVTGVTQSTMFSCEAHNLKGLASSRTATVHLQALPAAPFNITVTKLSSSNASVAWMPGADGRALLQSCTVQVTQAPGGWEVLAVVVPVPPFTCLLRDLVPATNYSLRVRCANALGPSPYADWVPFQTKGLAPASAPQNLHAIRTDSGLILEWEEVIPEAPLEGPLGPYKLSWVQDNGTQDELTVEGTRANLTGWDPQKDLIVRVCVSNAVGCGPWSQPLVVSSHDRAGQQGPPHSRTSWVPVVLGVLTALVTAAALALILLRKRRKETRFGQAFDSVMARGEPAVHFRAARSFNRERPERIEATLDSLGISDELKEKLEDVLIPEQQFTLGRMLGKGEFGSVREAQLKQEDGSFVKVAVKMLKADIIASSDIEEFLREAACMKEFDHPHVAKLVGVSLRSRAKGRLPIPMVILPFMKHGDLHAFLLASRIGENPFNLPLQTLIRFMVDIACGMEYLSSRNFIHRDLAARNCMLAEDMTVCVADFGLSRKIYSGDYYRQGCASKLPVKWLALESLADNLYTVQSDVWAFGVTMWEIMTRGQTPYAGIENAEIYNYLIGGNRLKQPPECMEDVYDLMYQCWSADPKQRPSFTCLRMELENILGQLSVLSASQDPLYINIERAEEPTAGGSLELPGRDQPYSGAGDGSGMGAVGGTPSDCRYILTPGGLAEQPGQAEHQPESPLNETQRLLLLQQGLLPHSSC
T2 sequence (P30530 whole entry): T1 sequence (P30530 whole entry)
T2 sequence (Q12866 whole entry): T1 sequence (Q12866 whole entry)
Assay: HTRF Kinase Activity Biochemical Assay
Protocol: Table 3: For the SAR (structure-activity relationship) and compound screening, HTRF (Homogeneous Time Resolved Fluorescence) kinase activity assay was employed for all MER, AXL and TYRO3 kinases using Cisbio HTRF KinEASE™-TK kit (Cisbio, USA). The kit includes biotin-labeled TK substrate, streptavidin-XL665, Eu3+-cryptate-labeled TK antibody and HTRF Detection buffer. There are two main steps in the kinase assay: kinase reaction and detection of phosphorylated substrate. The reaction was carried out in white low volume 384-well plate (Corning, USA) with 25 nL compound in dimethyl sulfoxide in each well. […] Then the reaction was stopped after 1 hour incubation at room temperature by adding 5 uL of HTRF Detection buffer which also contains 0.375 nM Eu3+-cryptate-labeled TK antibody and 0.062 uM streptavidin-XL665(SA-XL665) to allow for detection of the phosphorylated peptide product. After 1 h incubation at room temperature, the fluorescence intensity was measured with Envision™ plate reader (PerkinElmer, USA). Upon excitation at 340 nm by UV, the energy from Eu3+ donor of the antibody is transferred to the FRET acceptor XL665, and […] emits light at 665 nm. The level of kinase activity was quantified by the HTRF ratio that calculated from the intensity of emission at 665 nm and emission at 620 nm (fluorescence intensity @ 665 nm/fluorescence intensity @ 620 nm×10,000). The recombinant protein of human MER (528-end) was purchased from Carnabio, Japan. The recombinant human AXL (473-end) and TYRO3 (455-end) were purchased from SignalChem, Canada.

SMILES	pIC50
Cn1cc(-c2cnc(N)c(C(=O)N[C@@H]3CCN(C(=O)Nc4ccc(C#N)cc4)C3)c2)cn1 [US12378224, Example 7]	< 6.00
Nc1ncc(-c2ccc(S(=O)(=O)N3CCC3)cc2)cc1C(=O)N[C@@H]1CCN(C(=O)c2ccc(-c3ccccc3Cl)cc2)C1 [US12378224, Example 574]	< 6.00
Nc1ncc(-c2ccnc(N3CCNCC3)c2)cc1C(=O)N[C@@H]1CCN(C(=O)c2ccc(-c3ccc(F)cc3Cl)cc2)C1 [US12378224, Example 581]	> 8.00
CN1CCN(c2ccc(-c3cnc(N)c(C(=O)N[C@@H]4CCN(C(=O)c5ccc(-c6ccc(F)cc6Cl)cc5)C4)c3)cc2)CC1 [US12378224, Example 585]	> 8.00
CN1CCC(NC(=O)c2ccc(-c3cnc(N)c(C(=O)N[C@@H]4CCN(C(=O)c5ccc(-c6ccccc6Cl)cc5)C4)c3)cc2)CC1 [US12378224, Example 591]	> 8.00
CC1CCC(NC(=O)c2ccc(-c3cnc(N)c(C(=O)N[C@@H]4CCN(C(=O)c5ccc(-c6ccccc6Cl)cc5)C4)c3)cc2)CC1 (some centres undefined) [US12378224, Example 592]	< 6.00
